The assay is described as follows: Ion flotation of uranium from Monument Valley groundwater with rhamnolipid collectors. The source says: Groundwater Collection and Analysis: The Monument Valley site is in Cane Valley, AZ, which is in northeastern Arizona. Groundwater was collected from monitoring well 662, which is down gradient of the source zone within the boundaries of the uranium groundwater plume. Samples were collected using dedicated bladder pumps and a QED Micropurge Controller. Groundwater was collected into a 50 L LDPE carboy (Thermo Scientific Nalgene) after the groundwater's pH and dissolved oxygen levels from the pump stabilized. The solution was stored as received, on the lab bench at ambient temperature until use.
For cation and anion analysis, groundwater was filtered ([…]) then diluted with 2% trace metals grade nitric acid (Fisher Scientific, Waltham, MA) in metal-free polypropylene 15 mL centrifuge tubes (VWR, Radnor, PA). Cations were analyzed using an Elan DRC-II inductively coupled plasma mass spectrometer (ICP-MS). Anions (F^−1, Cl^−1, Br^−1, NO2^−1, NO3^−1, […], and SO4^−2) were analyzed by using a Thermo Scientific Dionex ICS-6000 high-performance ion chromatography system. Data generated in this geochemical analysis were used to model uranium speciation using Visual MINTEQ 3.1. Only major solution constituents—those greater than 10 μg L^−1 for metals or 5 μmol L^−1 for anions—were included in the experiment, and carbonates were excluded because they are stripped from solution when nitrogen is sparged in the flotation process.
Chemicals: Both biosynthetic and synthetic monorhamnolipid collectors were tested for flotation efficiency. Biosynthetic monorhamnolipid tail lengths ‘m’ and ‘n’ range from 4 to 12 due to natural congener variation. Synthetic monorhamnolipids (Rha-C10-C10, Rha-C12-C12, or Rha-C14-C14) were synthesized with equal length tails where ‘m’=‘n’=6-14. The production and purification of biosynthetic monorhamnolipids (bio-mRL) from Pseudomonas aeruginosa ATCC 9027 has been previously described by Hogan et al., J. Hazard. Mater. 2017, 340, pp. 171-178. This organism exclusively produces monorhamnolipids—rhamnolipids with a single rhamnose sugar in the hydrophilic moiety of the molecule—as a congener mixture with varying hydrophobic tail lengths, in which the rhamnosyl-β-hydroxydecanoyl-β-hydroxydecanoate (C10-C10) dominates at 75-85 wt %. A molecular weight of 504 g mol^−1 (based on the C10-C10 structure) was used to estimate the bio-mRL concentration. Synthetic monorhamnolipids with decyl (Rha-C10-C10), dodecyl (Rha-C12-C12), and tetradecyl (Rha-C14-C14) hydrophobic moieties were prepared for comparative experiment. The molecular weights of the synthetic monorhamnolipids are 504.7, 560.8, and 616.9, respectively. All solutions were made using nanopure water (≥18 MΩ-cm). pH was adjusted with HNO3 and NaOH. […]

Uranium removal and uranium removal percentage data for one compound are collected here from patent publication US20240182513A1, “SEPARATION OF METAL IONS FROM A SAMPLE USING GLYCOLIPIDS” (ARIZONA BOARD OF REGENTS ON BEHALF OF THE UNIVERSITY OF …, priority 2021, published 2024).

On to `CCCCCCCCCC(CC(=O)O)OC(=O)CC(CCCCCCCCC)OC1O[C@@H](C)[C@H](O)[C@@H](O)[C@H]1O` (stereo partly drawn) [Rha C12C12, rhamnosyl-β-hydroxydodecanoyl-62-hydroxydodecanoate], for which the uranium removal result (native pH 8) was “did not collect metals” and the uranium removal entry (pH 7) was “No significant amount of uranium was removed”. Further, the uranium removal percentage (pH 6.5) came out at 6.6%.
